Several values for one entry are separate records, joined by “and”; a condition that tells them apart may be missing. Equal values may be shown once. Toxic doses and inconclusive results are not listed. The calls were made as follows: active = survival T/C of 150% or more; inactive = T/C below 125% in these data.
Tested on: BDF1 mice, P388 leukemia ip, median survival T/C
Assay: NCI In Vivo Anticancer Drug Screen. Data for tumor model P388 Leukemia (intraperitoneal) in B6D2F1 (BDF1) mice
Conditions: endpoint: median survival time, higher = longer survival
How it was run: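 Each value expresses how treatment altered survival: treated-mouse outcome over vehicle-mouse outcome, both groups bearing the transplanted tumour.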

[1] = dose: 100.0 mg/kg/injection, schedule: Q04DX003 (ip), vehicle: saline sonified
[2] = dose: 200.0 mg/kg/injection, schedule: Q04DX003 (ip), vehicle: saline sonified
[3] = dose: 400.0 mg/kg/injection, schedule: Q04DX003 (ip), vehicle: saline sonified
[4] = dose: 50.0 mg/kg/injection, schedule: Q01DX009 (ip), vehicle: saline with Tween-80
[5] = dose: 100.0 mg/kg/injection, schedule: Q01DX009 (ip), vehicle: saline with Tween-80

Measured: T/C

NC1=C(Cl)C(=O)C(Cl)=C(Cl)C1=O
inactive: dose: 0.39 mg/kg/injection, schedule: Q01DX009 (ip), vehicle: saline 102 % of control | dose: 0.78 mg/kg/injection, schedule: Q01DX009 (ip), vehicle: saline 98 % of control | dose: 1.56 mg/kg/injection, schedule: Q01DX009 (ip), vehicle: saline 99 % of control

CC(=O)n1nc2c(c1CC(C)C)C(=O)C(Nc1ccccc1)=CC2=O
inactive: dose: 100.0 mg/kg/injection, schedule: Q04DX002 (ip), vehicle: saline with Tween-80 102 % of control | dose: 200.0 mg/kg/injection, schedule: Q04DX002 (ip), vehicle: saline with Tween-80 108 % of control | dose: 400.0 mg/kg/injection, schedule: Q04DX002 (ip), vehicle: saline with Tween-80 106 % of control

O=C1C=C/C(=N/S(=O)(=O)c2ccccc2)c2ccccc21
inactive: dose: 0.37 mg/kg/injection, schedule: Q01DX009 (ip), vehicle: DMSO 100 % of control | dose: 0.75 mg/kg/injection, schedule: Q01DX009 (ip), vehicle: DMSO 100 % of control | dose: 1.5 mg/kg/injection, schedule: Q01DX009 (ip), vehicle: DMSO 100 % of control | dose: 12.0 mg/kg/injection, schedule: Q01DX009 (ip), vehicle: DMSO 92 % of control | dose: 25.0 mg/kg/injection, schedule: Q04DX003 (ip), vehicle: DMSO 91 % of control | dose: 50.0 mg/kg/injection, schedule: Q04DX003 (ip), vehicle: DMSO 104 % of control | dose: 100.0 mg/kg/injection, schedule: Q04DX003 (ip), vehicle: DMSO 100 % of control

Cc1cc(=O)[nH]c2c1CCCC2
inactive: dose: 37.5 mg/kg/injection, schedule: Q01DX009 (ip), vehicle: saline with Tween-80 92 % of control | dose: 75.0 mg/kg/injection, schedule: Q01DX009 (ip), vehicle: saline with Tween-80 99 % of control and 118 % of control | dose: 150.0 mg/kg/injection, schedule: Q01DX009 (ip), vehicle: saline with Tween-80 103 % of control | dose: 300.0 mg/kg/injection, schedule: Q01DX009 (ip), vehicle: saline with Tween-80 91 % of control

COC(=O)c1ccc(OCCOc2ccc(C(C)(C)CC(C)(C)C)cc2)c([N+](=O)[O-])c1
inactive: [1] 100 % of control | [2] 86 % of control | [3] 86 % of control

CC(C)(C)c1ccc2c(cc[n+]3ccccc23)c1
inactive: dose: 1.56 mg/kg/injection, schedule: Q01DX005 (ip), vehicle: saline with Tween-80 115 % of control | dose: 3.13 mg/kg/injection, schedule: Q01DX005 (ip), vehicle: saline with Tween-80 123 % of control

ClC(Cl)(Cl)CC(Br)c1ccccc1 (centres undefined)
inactive: [1] 91 % of control | [2] 100 % of control | [3] 100 % of control

Cc1ccc(C(=O)O)c(=O)[nH]1
inactive: [4] 98 % of control | [5] 95 % of control | dose: 200.0 mg/kg/injection, schedule: Q01DX009 (ip), vehicle: saline with Tween-80 100 % of control | dose: 400.0 mg/kg/injection, schedule: Q01DX009 (ip), vehicle: saline with Tween-80 94 % of control

C=CCCCCCCCCC(=O)NCCN1CCOCC1
inactive: [4] 104 % of control | [5] 100 % of control

COc1ccc(OC(=O)CCCl)cc1
inactive: dose: 100.0 mg/kg/injection, schedule: Q04DX003 (ip), vehicle: saline with Tween-80 100 % of control | dose: 200.0 mg/kg/injection, schedule: Q04DX003 (ip), vehicle: saline with Tween-80 100 % of control | dose: 400.0 mg/kg/injection, schedule: Q04DX003 (ip), vehicle: saline with Tween-80 113 % of control

CCN(CC)CCOC(=O)c1ccccc1N(c1ccccc1)c1ccccc1
inactive: dose: 62.5 mg/kg/injection, schedule: Q01DX009 (ip), vehicle: Klucel (hydroxypropylcellulose) (HPC) 118 % of control | dose: 125.0 mg/kg/injection, schedule: Q01DX009 (ip), vehicle: Klucel (hydroxypropylcellulose) (HPC) 118 % of control

COc1cc(OC)cc(OC)c1
inactive: dose: 40.0 mg/kg/injection, schedule: Q01DX009 (ip), vehicle: Klucel (hydroxypropylcellulose) (HPC) 108 % of control | dose: 80.0 mg/kg/injection, schedule: Q01DX009 (ip), vehicle: Klucel (hydroxypropylcellulose) (HPC) 100 % of control | dose: 160.0 mg/kg/injection, schedule: Q01DX009 (ip), vehicle: Klucel (hydroxypropylcellulose) (HPC) 106 % of control

O=C(N[C@H](CO)[C@H](O)c1ccc([N+](=O)[O-])cc1)C(Cl)Cl
inactive: [5] 118 % of control

OCCNCCN1CCN(CCCN2c3ccccc3Sc3ccc(C(F)(F)F)cc32)CC1
inactive: dose: 6.25 mg/kg/injection, schedule: Q04DX003 (ip), vehicle: saline 104 % of control | dose: 12.5 mg/kg/injection, schedule: Q04DX003 (ip), vehicle: saline 110 % of control | dose: 25.0 mg/kg/injection, schedule: Q04DX003 (ip), vehicle: saline 91 % of control and 110 % of control | dose: 50.0 mg/kg/injection, schedule: Q04DX003 (ip), vehicle: saline 91 % of control

Reference: PubChem BioAssay AID328 (DTP/NCI, 2004)
